Experimental data: patent publication US20130323721A1, “HEPATOCYTES FOR IN VITRO GENOTOXICITY TESTS” (MEDICYTE GMBH, priority 2010, published 2013)
Like-named read-outs stand apart in the source and are kept apart here.

Tests used:
[1] = test system: proliferating hepatocytes; assay: Micronucleus formation in proliferating hepatocytes, FACS assay
Procedure: So as to check the suitability of the proliferatable hepatocytes described in the patent with respect to genotoxicity tests, the cells were treated with substances that are considered positive and negative substances for genotoxicity. Genotoxicity was quantified by way of the share of induced micronuclei as compared to the control group using an FACS assay.
The proliferating hepatocytes described in the invention were plated out in a density of 3000 cells/cm^2 on collagen-coated cell culture vessels and treated with the aforementioned substances in various concentrations. Within the scope of regulatory testing according to OECD, testing took place up to 50% cytotoxicity, which was determined for each substance beforehand by way of a MTT viability assay.

V79 cells = settings: with or without S9 mix; cited from earlier work
[2] = test system: bacteria (auxotrophic mutants); settings: with S9 fraction of hamster liver; cited from earlier work

Structure (SMILES): COc1cc(/C=C/C(=O)CC(=O)/C=C/c2ccc(O)c(OC)c2)ccc1O [curcumin]
- Genotoxicity: induced micronuclei compared to the control group [1]: did not induce increased micronuclei formation

Structure (SMILES): O=P1(N(CCCl)CCCl)NCCCO1 (stereo not shown) [CPA, cyclophosphamide]
- Genotoxicity: induced micronuclei compared to the control group ([1]; various concentrations up to 50% cytotoxicity, no external S9, FIGS. 2-4): clearly recognized as being positive
- Detection of genotoxicity in micronucleus test (V79 cells): only detected in the currently used micronucleus test with V79 cells if the substance was previously converted with a CYP enzyme extract (S9 mix)

Structure (SMILES): CCOc1ccc(NC(C)=O)cc1 [phenacetin]
- Ames test result (mutagenicity) [2]: only tested positively in the Ames test if an incubation of phenacetin is carried out with the S9 fraction of hamster liver
